# Measurements from US20240391862A1, “(1,4,5-TRISUBSTITUTED-1H-PYRAZOL-3-YL)OXY-2-ALKOXY ALKYL ACIDS AND THEIR DERIVATIVES, THEIR SALTS AND THEIR USE AS HERBICIDAL AGENTS” (Bayer AKtiengesellschaft, priority 2021, published 2024).
# Key:
# ECHCG = experiment: Post-emergence herbicidal effect, greenhouse pot test; type: in vivo, Echinochloa crus-galli
# Description: (§1) • ALOMY: Alopecurus myosuroides SETVI: Setaria viridis • AVEFA: Avena fatua POLCO: Fallopia convolvulus • AMARE: Amaranthus retroflexus ECHCG: Echinochloa crus-galli • LOLRJ: Lolium rigidum STEME: Stellaria media • VERPE: Veronica persica MATIN: Tripleurospermum inodorum • DIGSA: Digitaria sanguinalis ABUTH: Abutylon threophrasti • TRZAS: Triticum aestivum VIOTR: Viola tricolor • BRSNW: Brassica napus ZEAMX: Zea mays • PHBPU: Ipomoea purpurea GLXMA: Glycine max • ORYSA: Oryza sativa HORMU: Hordeum murinum
# (§2) Seeds of monocotyledonous and dicotyledonous weeds and crop plants are placed in sandy loam in plastic or organic planting pots, covered with soil and cultivated in a greenhouse under controlled growth conditions. 2 to 3 weeks after sowing, the trial plants are treated at the one-leaf stage. The compounds of the invention, formulated in the form of wettable powders (WP) or as emulsion concentrates (EC), are then sprayed onto the green parts of the plants as aqueous suspension or emulsion with addition of 0.5% additive at a water application rate of 600 l/ha (converted). After the test plants have been kept in the greenhouse under optimum growth conditions for about 3 weeks, the activity of the preparations is rated visually in comparison to untreated controls. For example, 100% activity=the plants have died, 0% activity=like control plants.
# (§3) Tables 20a to 38c below show the effects/crop compatibilities of selected compounds of the general formula (I) on various harmful plants at an application rate corresponding to 20 to 320 g/ha, which were obtained by the trial procedure specified above.
# AVEFA = experiment: as above; type: in vivo, Avena fatua; conditions: visual rating about 3 weeks after treatment
# Description: as §1, §2, §3
# VIOTR = experiment: as above; type: in vivo, Viola tricolor
# Description: as §1, §2, §3
# PHBPU = experiment: as above; type: in vivo, Ipomoea purpurea
# Description: as §1, §2, §3
# POLCO = experiment: as above; type: in vivo, Fallopia convolvulus
# Description: as §1, §2, §3
# MATIN = experiment: as above; type: in vivo, Tripleurospermum inodorum
# Description: as §1, §2, §3
# SETVI = experiment: as above; type: in vivo, Setaria viridis
# Description: as §1, §2, §3
# KCHSC = experiment: as above; type: in vivo
# Procedure: as §2, with “plants. Tables 20a to 38c below show the effects/crop compatibilities of selected compounds of the general formula (I) on various harmful plants at an application rate corresponding to 20 to 320 g/ha, which were obtained by the trial procedure specified above.” for “plants.”
# DIGSA = experiment: as above; type: in vivo, Digitaria sanguinalis; conditions: visual rating about 3 weeks after treatment
# Description: as §1, §2, §3
# VERPE = experiment: as above; type: in vivo, Veronica persica
# Description: as §1, §2, §3
# ALOMY = experiment: as above; type: in vivo, Alopecurus myosuroides; conditions: 320 g/ha, visual rating about 3 weeks after treatment
# Description: as §1, §2, §3
# ABUTH = experiment: as above; type: in vivo, Abutilon theophrasti; conditions: visual rating about 3 weeks after treatment
# Description: as §1, §2, §3
# ZEAMX = experiment: Post-emergence herbicidal effect and crop plant compatibility, greenhouse pot test; type: in vivo, Zea mays; conditions: 20 g/ha, one-leaf stage, rated visually after about 3 weeks vs untreated controls
# Description: as §1, §2, §3
# AMARE = experiment: Post-emergence herbicidal effect, greenhouse pot test; type: in vivo, Amaranthus retroflexus; conditions: 320 g/ha, visual rating about 3 weeks after treatment
# Description: as §1, §2, §3
smiles,measurement,setting,value
"CCOC(Oc1nn(-c2ccccc2F)c(-c2ccc(F)nc2)c1Br)C(=O)OCCC(=O)OC (single isomer, unassigned) [Example I-63, Methyl 3-{[(2R*)-2-{[4-bromo-1-(2-fluorophenyl)-5-(6-fluoropyridin-3-yl)-1H-pyrazol-3-yl]oxy}-2-ethoxyethanoyl]oxy}propanoate]",pest or weed control at 20 g/ha,"ECHCG; Echinochloa crus-galli, 504 h, 20 g/ha, visual rating about 3 weeks after treatment, read-out: Post-emergence effect against ECHCG",90%
same,pest or weed control at 80 g/ha,"ECHCG; Echinochloa crus-galli, 504 h, 80 g/ha, read-out: Post-emergence effect against ECHCG in %",90%
same,pest or weed control at 320 g/ha,"ECHCG; Echinochloa crus-galli, 504 h, 320 g/ha, read-out: Post-emergence effect against ECHCG in %",90%
same,pest or weed control at 80 g/ha,"AVEFA; Avena fatua, 504 h, 80 g/ha, read-out: Post-emergence effect against AVEFA",80%
same,pest or weed control at 320 g/ha,"AVEFA; Avena fatua, 504 h, 320 g/ha, read-out: Post-emergence effect against AVEFA",90%
same,pest or weed control at 80 g/ha,"VIOTR; Viola tricolor, 504 h, 80 g/ha, read-out: Post-emergence effect against VIOTR in %",80%
same,pest or weed control at 320 g/ha,"VIOTR; Viola tricolor, 504 h, 320 g/ha, read-out: Post-emergence effect against VIOTR in %",90%
same,pest or weed control at 20 g/ha,"PHBPU; Ipomoea purpurea, 504 h, 20 g/ha, read-out: Post-emergence effect against PHBPU in %",80%
same,pest or weed control at 80 g/ha,"PHBPU; Ipomoea purpurea, 504 h, 80 g/ha, read-out: Post-emergence effect against PHBPU in %",90%
same,pest or weed control at 320 g/ha,"PHBPU; Ipomoea purpurea, 504 h, 320 g/ha, read-out: Post-emergence effect against PHBPU in %",90%
same,pest or weed control at 80 g/ha,"POLCO; Fallopia convolvulus, 504 h, 80 g/ha, read-out: Post-emergence effect against POLCO in %",80%
same,pest or weed control at 320 g/ha,"POLCO; Fallopia convolvulus, 504 h, 320 g/ha, read-out: Post-emergence effect against POLCO in %",90%
same,pest or weed control at 80 g/ha,"MATIN; Tripleurospermum inodorum, 504 h, 80 g/ha, read-out: Post-emergence effect against MATIN in %",80%
same,pest or weed control at 320 g/ha,"MATIN; Tripleurospermum inodorum, 504 h, 320 g/ha, read-out: Post-emergence effect against MATIN in %",80%
same,pest or weed control at 80 g/ha,"SETVI; Setaria viridis, 504 h, 80 g/ha, read-out: Post-emergence effect against SETVI in %",90%
same,pest or weed control at 320 g/ha,"SETVI; Setaria viridis, 504 h, 320 g/ha, read-out: Post-emergence effect against SETVI in %",90%
same,pest or weed control at 320 g/ha,"KCHSC; 504 h, 320 g/ha, read-out: Post-emergence effect against KCHSC in %",90%
same,pest or weed control at 80 g/ha,"DIGSA; Digitaria sanguinalis, 504 h, 80 g/ha, read-out: Post-emergence effect against DIGSA",90%
same,pest or weed control at 320 g/ha,"DIGSA; Digitaria sanguinalis, 504 h, 320 g/ha, read-out: Post-emergence effect against DIGSA",90%
same,pest or weed control at 80 g/ha,"VERPE; Veronica persica, 504 h, 80 g/ha, read-out: Post-emergence effect against VERPE in %",80%
same,pest or weed control at 320 g/ha,"VERPE; Veronica persica, 504 h, 320 g/ha, read-out: Post-emergence effect against VERPE in %",80%
same,pest or weed control at 320 g/ha,"ALOMY; Alopecurus myosuroides, 504 h, read-out: Post-emergence effect against ALOMY",90%
same,pest or weed control at 80 g/ha,"ABUTH; Abutilon theophrasti, 504 h, 80 g/ha, read-out: Post-emergence effect against ABUTH",90%
same,pest or weed control at 320 g/ha,"ABUTH; Abutilon theophrasti, 504 h, 320 g/ha, read-out: Post-emergence effect against ABUTH",90%
"COC(=O)CCOC(=O)C(OC)Oc1nn(-c2ncccc2F)c(-c2ccc(F)nc2)c1C1CC1 (single isomer, unassigned) [Example I-80]",Post-emergence effect at 20 g/ha against ZEAMX in %,ZEAMX,20%
same,Post-emergence effect against ECHCG,"ECHCG; 20 g/ha, visual rating about 3 weeks after treatment",90%
same,Post-emergence effect against ECHCG in %,ECHCG; 80 g/ha,90%
same,Post-emergence effect against ECHCG in %,ECHCG; 320 g/ha,90%
same,Post-emergence effect against AVEFA,AVEFA; 320 g/ha,90%
same,Post-emergence effect against VIOTR in %,VIOTR; 80 g/ha,80%
same,Post-emergence effect against VIOTR in %,VIOTR; 320 g/ha,90%
same,Post-emergence effect against PHBPU in %,PHBPU; 80 g/ha,90%
same,Post-emergence effect against PHBPU in %,PHBPU; 320 g/ha,90%
same,Post-emergence effect against POLCO in %,POLCO; 320 g/ha,90%
same,Post-emergence effect against SETVI in %,SETVI; 80 g/ha,90%
same,Post-emergence effect against SETVI in %,SETVI; 320 g/ha,90%
same,Post-emergence effect against KCHSC in %,KCHSC; 20 g/ha,90%
same,Post-emergence effect against KCHSC in %,KCHSC; 80 g/ha,90%
same,Post-emergence effect against KCHSC in %,KCHSC; 320 g/ha,90%
same,Post-emergence effect against DIGSA,DIGSA; 80 g/ha,80%
same,Post-emergence effect against DIGSA,DIGSA; 320 g/ha,90%
same,Post-emergence effect against AMARE,AMARE,80%
same,Post-emergence effect against VERPE in %,VERPE; 80 g/ha,80%
same,Post-emergence effect against VERPE in %,VERPE; 320 g/ha,90%
same,Post-emergence effect against ALOMY,ALOMY,90%
same,Post-emergence effect against ABUTH,ABUTH; 80 g/ha,80%
same,Post-emergence effect against ABUTH,ABUTH; 320 g/ha,80%
COC(=O)CCOC(=O)C(OC)Oc1nn(-c2ccccc2F)c(-c2ccc(F)nc2)c1C1CC1 (centres unmarked) [Example I-61],Post-emergence effect at 20 g/ha against ZEAMX in %,ZEAMX,0%
same,Post-emergence effect against ECHCG in %,ECHCG; 80 g/ha,90%
same,Post-emergence effect against ECHCG in %,ECHCG; 320 g/ha,90%
same,Post-emergence effect against AVEFA,AVEFA; 80 g/ha,80%
same,Post-emergence effect against AVEFA,AVEFA; 320 g/ha,90%
same,Post-emergence effect against VIOTR in %,VIOTR; 20 g/ha,80%
same,Post-emergence effect against VIOTR in %,VIOTR; 80 g/ha,90%
same,Post-emergence effect against VIOTR in %,VIOTR; 320 g/ha,90%
same,Post-emergence effect against PHBPU in %,PHBPU; 80 g/ha,90%
same,Post-emergence effect against PHBPU in %,PHBPU; 320 g/ha,90%
same,Post-emergence effect against POLCO in %,POLCO; 80 g/ha,80%
same,Post-emergence effect against POLCO in %,POLCO; 320 g/ha,80%
same,Post-emergence effect against MATIN in %,MATIN; 80 g/ha,80%
same,Post-emergence effect against MATIN in %,MATIN; 320 g/ha,80%
same,Post-emergence effect against SETVI in %,SETVI; 80 g/ha,90%
same,Post-emergence effect against SETVI in %,SETVI; 320 g/ha,90%
same,Post-emergence effect against KCHSC in %,KCHSC; 80 g/ha,80%
same,Post-emergence effect against KCHSC in %,KCHSC; 320 g/ha,90%
same,Post-emergence effect against DIGSA,DIGSA; 80 g/ha,80%
same,Post-emergence effect against DIGSA,DIGSA; 320 g/ha,90%
same,Post-emergence effect against VERPE in %,VERPE; 80 g/ha,80%
same,Post-emergence effect against VERPE in %,VERPE; 320 g/ha,80%
same,Post-emergence effect against ALOMY,ALOMY,90%
same,Post-emergence effect against ABUTH,ABUTH; 80 g/ha,80%
same,Post-emergence effect against ABUTH,ABUTH; 320 g/ha,80%
COC(=O)CCOC(=O)C(OC)Oc1nn(-c2ccccc2F)c(-c2ccc(F)nc2)c1C(F)(F)F (centres unmarked) [Example I-62],Post-emergence effect at 20 g/ha against ZEAMX in %,ZEAMX,0%
same,Post-emergence effect against ECHCG in %,ECHCG; 80 g/ha,90%
same,Post-emergence effect against ECHCG in %,ECHCG; 320 g/ha,90%
same,Post-emergence effect against AVEFA,AVEFA; 80 g/ha,90%
same,Post-emergence effect against AVEFA,AVEFA; 320 g/ha,90%
same,Post-emergence effect against VIOTR in %,VIOTR; 80 g/ha,90%
same,Post-emergence effect against VIOTR in %,VIOTR; 320 g/ha,90%
same,Post-emergence effect against PHBPU in %,PHBPU; 20 g/ha,90%
same,Post-emergence effect against PHBPU in %,PHBPU; 80 g/ha,90%
same,Post-emergence effect against PHBPU in %,PHBPU; 320 g/ha,90%
same,Post-emergence effect against POLCO in %,POLCO; 80 g/ha,80%
same,Post-emergence effect against POLCO in %,POLCO; 320 g/ha,80%
same,Post-emergence effect against MATIN in %,MATIN; 80 g/ha,80%
same,Post-emergence effect against MATIN in %,MATIN; 320 g/ha,80%
same,Post-emergence effect against SETVI in %,SETVI; 80 g/ha,90%
same,Post-emergence effect against SETVI in %,SETVI; 320 g/ha,90%
same,Post-emergence effect against KCHSC in %,KCHSC; 20 g/ha,80%
same,Post-emergence effect against KCHSC in %,KCHSC; 80 g/ha,90%
same,Post-emergence effect against KCHSC in %,KCHSC; 320 g/ha,90%
same,Post-emergence effect against DIGSA,DIGSA; 80 g/ha,90%
same,Post-emergence effect against DIGSA,DIGSA; 320 g/ha,90%
same,Post-emergence effect against VERPE in %,VERPE; 80 g/ha,80%
same,Post-emergence effect against VERPE in %,VERPE; 320 g/ha,80%
same,Post-emergence effect against ALOMY,ALOMY,90%
same,Post-emergence effect against ABUTH,ABUTH; 80 g/ha,80%
same,Post-emergence effect against ABUTH,ABUTH; 320 g/ha,90%
